From US8871753B2, “Macrocyclic compounds and their use as kinase inhibitors” (Incyte Corporation, priority 2008, dated 2014)
Counter-ions that a name gives are not always drawn. Like-named read-outs stand apart in the source and are kept apart here. Blank lines part the entries; values can stand above or below the compound they belong to.

Key:
Type in all cases: biochemical
[1] = target: T1, Recombinant Human Anaplastic Lymphoma Kinase (Homo sapiens, UniProt Q9UM73); test: ALK HTRF kinase assay
T1 construct: purchased Invitrogen, Carlsbad, Calif
Procedure, shortened: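 TR-FRET read-out (Eu anti-pTyr antibody + streptavidin-APC) of biotin-peptide phosphorylation by recombinant human enzyme; IC50 by sigmoidal fit with top/bottom baselines and Hill slope.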

[2] = target: T2, human JAK1 (a.a. 837-1142) (Homo sapiens, UniProt P23458); test: In vitro JAK kinase assay (HTRF, phosphorylation of a biotinylated peptide), JAK1; conditions: read-out: JAK1 IC50
T2 construct: human JAK1 (a.a. 837-1142); His tag (N); made in house; host or cells: insect cells (baculovirus)
Procedure, shortened: (§1)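 Kinase activity was measured as phosphorylation of a biotinylated peptide, with ATP at 90 μM for JAK1, 30 μM for JAK2 and 3 μM for JAK3. Reactions ran 1 hr at room temperature, were stopped with EDTA plus SA-APC and Eu-Py20, and were read by HTRF after 40 minutes of antibody binding.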

[3] = target: T3, human JAK2 (a.a. 828-1132) (Homo sapiens, UniProt O60674); test: In vitro JAK kinase assay (HTRF, phosphorylation of a biotinylated peptide), JAK2
T3 construct: JAK2 (a.a. 828-1132); His tag (N); made in house; host or cells: insect cells (baculovirus)
Procedure, shortened: as §1

TYK2 = TYK2 (Homo sapiens, UniProt P29597); test: TYK2 kinase inhibition (Table A1)
[4] = target: T4, human JAK3 (a.a. 781-1124) (Homo sapiens, UniProt P52333); test: In vitro JAK kinase assay (HTRF, phosphorylation of a biotinylated peptide), JAK3
T4 construct: JAK3 (a.a. 781-1124); His tag (N); made in house; host or cells: insect cells (baculovirus)
Procedure, shortened: as §1

[5] = compound at a concentration of 500 nM or 1 mM (not specified), cells shown as percentage
[6] = Table B1, cells without percent sign
[7] = percentage inhibition of the example compound at a concentration of 500 nM or 1 mM (not specified which)
[8] = compound at 500 nM or 1 mM, 90 μM ATP
[9] = method AA1 (90 μM ATP) or AA2 (1000 μM ATP), not stated per value
[10] = method AA1 (30 μM ATP) or AA2 (1000 μM ATP), not stated per value
[11] = method AA1 (3 μM ATP) or AA2 (1000 μM ATP), not stated per value

T3 sequence (O60674 828-1132): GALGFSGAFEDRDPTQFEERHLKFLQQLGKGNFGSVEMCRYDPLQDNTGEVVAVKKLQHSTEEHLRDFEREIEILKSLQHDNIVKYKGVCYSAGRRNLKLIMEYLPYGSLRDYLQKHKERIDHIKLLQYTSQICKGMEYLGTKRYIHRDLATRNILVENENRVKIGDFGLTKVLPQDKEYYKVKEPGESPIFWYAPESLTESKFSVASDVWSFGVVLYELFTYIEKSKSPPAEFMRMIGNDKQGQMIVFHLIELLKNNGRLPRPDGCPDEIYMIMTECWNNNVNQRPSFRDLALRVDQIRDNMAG
T1 sequence (Q9UM73 19-1620): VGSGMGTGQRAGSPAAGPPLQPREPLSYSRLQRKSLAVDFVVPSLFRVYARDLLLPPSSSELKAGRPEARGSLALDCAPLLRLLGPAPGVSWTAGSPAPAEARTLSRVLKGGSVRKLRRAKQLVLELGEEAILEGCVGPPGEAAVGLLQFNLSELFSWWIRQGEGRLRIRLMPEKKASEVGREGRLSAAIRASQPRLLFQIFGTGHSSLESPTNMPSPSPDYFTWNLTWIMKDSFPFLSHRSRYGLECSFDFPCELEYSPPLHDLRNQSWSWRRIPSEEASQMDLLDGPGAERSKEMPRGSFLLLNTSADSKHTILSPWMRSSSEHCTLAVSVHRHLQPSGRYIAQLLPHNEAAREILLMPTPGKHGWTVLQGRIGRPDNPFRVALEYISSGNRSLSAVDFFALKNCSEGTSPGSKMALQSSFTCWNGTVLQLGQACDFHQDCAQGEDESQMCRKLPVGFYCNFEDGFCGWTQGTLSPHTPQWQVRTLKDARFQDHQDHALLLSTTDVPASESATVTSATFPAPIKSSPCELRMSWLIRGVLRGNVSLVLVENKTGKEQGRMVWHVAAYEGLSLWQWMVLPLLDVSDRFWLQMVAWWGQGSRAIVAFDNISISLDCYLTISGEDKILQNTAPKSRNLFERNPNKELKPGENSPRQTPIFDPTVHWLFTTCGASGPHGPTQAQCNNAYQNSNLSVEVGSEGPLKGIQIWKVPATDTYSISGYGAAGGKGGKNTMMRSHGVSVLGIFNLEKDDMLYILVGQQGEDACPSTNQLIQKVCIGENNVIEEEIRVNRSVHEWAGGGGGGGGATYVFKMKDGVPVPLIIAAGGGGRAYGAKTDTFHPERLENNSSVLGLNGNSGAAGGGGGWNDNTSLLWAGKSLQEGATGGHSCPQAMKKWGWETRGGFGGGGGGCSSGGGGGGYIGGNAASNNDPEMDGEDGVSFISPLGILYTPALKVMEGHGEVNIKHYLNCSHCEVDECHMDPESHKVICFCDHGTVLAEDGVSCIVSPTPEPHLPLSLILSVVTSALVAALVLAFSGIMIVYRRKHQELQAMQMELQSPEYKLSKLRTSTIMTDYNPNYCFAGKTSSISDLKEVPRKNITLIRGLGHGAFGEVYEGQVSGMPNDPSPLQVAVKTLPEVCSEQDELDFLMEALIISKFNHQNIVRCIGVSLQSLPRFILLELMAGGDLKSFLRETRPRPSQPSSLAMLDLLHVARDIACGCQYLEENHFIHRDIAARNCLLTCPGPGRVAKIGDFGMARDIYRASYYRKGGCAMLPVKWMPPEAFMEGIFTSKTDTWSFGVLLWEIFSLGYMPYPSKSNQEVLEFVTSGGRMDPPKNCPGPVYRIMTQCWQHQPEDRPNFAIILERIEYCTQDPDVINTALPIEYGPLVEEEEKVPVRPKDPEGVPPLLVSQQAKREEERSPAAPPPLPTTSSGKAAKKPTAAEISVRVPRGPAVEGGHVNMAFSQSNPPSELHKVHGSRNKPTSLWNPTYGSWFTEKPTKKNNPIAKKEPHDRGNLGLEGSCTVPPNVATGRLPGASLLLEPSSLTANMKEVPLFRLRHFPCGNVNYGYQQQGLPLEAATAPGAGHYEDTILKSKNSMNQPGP
T4 sequence (P52333 781-1124): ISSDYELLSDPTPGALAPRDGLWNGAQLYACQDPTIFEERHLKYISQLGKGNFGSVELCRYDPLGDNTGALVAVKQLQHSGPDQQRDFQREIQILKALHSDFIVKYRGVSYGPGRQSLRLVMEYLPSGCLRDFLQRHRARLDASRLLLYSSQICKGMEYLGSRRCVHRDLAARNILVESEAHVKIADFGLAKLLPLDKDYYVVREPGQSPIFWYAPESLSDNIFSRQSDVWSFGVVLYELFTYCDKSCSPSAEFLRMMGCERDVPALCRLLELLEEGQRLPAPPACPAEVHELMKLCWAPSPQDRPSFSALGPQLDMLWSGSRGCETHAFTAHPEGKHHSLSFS
TYK2, sequence (P29597 whole entry): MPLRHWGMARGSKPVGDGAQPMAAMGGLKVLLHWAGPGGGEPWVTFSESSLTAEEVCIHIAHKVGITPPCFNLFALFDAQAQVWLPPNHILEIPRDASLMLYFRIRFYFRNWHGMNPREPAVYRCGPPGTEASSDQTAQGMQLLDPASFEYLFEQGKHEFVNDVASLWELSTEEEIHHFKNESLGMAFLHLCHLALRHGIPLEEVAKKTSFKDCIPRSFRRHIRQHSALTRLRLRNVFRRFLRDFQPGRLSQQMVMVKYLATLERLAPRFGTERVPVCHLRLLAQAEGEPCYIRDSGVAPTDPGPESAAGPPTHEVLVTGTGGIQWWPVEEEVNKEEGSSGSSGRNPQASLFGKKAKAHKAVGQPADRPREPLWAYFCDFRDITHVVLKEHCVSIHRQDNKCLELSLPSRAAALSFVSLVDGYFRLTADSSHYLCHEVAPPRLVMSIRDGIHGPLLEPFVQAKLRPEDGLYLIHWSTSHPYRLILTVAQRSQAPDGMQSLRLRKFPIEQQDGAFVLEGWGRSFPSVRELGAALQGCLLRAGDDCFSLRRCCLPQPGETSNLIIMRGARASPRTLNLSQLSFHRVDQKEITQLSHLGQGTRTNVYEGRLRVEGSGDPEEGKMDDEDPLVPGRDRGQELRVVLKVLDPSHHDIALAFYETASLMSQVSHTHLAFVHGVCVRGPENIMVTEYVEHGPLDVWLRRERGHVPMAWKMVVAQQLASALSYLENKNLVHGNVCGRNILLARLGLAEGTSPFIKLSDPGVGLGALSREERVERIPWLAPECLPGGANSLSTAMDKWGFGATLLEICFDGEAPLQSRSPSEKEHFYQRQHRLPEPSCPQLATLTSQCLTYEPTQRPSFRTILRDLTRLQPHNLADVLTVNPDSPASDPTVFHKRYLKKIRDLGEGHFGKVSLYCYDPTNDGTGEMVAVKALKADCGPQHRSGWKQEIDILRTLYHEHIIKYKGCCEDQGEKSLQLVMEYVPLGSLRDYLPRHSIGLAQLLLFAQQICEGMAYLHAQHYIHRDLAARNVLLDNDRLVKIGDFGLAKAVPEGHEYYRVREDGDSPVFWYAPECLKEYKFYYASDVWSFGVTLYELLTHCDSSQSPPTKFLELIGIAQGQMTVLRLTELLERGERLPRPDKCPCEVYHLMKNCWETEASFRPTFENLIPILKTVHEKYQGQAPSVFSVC
T2 sequence (P23458 849-1154): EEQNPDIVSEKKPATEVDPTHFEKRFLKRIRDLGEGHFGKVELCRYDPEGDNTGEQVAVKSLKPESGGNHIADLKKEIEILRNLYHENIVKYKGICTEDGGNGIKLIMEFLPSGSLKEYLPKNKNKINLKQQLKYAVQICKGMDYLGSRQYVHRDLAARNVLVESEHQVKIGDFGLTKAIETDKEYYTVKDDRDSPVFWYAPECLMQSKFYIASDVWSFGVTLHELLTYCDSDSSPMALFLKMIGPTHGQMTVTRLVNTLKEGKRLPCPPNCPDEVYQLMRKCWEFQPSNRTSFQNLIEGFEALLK

SMILES: O=C(Nc1ccc2cc1CCc1cccc(c1)Nc1ncc(Cl)c(n1)N2)c1cccnc1Cl [Example B70, 2-Chloro-N-[6-chloro-2,4,8,22-tetraazatetracyclo[14.3.1.1(3,7).1(9,13)]docosa-1(20),3(22),4,6,9(21),10,12,16,18-nonaen-12-yl]nicotinamide bis(trifluoroacetate)]
ALK % of inhibition at a concentration of 500 nM or 1 mM [1, 5]: 82%
IC50 ([2]; Table B1): 1.5 nM
IC50 ([3]; Table B1): 0.64 nM
IC50 (TYK2; Table B1): 2.5 nM
IC50 ([4]; Table B1): 2.4 nM

SMILES: CCCS(=O)(=O)Nc1ccc2cc1CCc1cccc(c1)Nc1ncc(Cl)c(n1)N2 [Example B142, N-[6-Chloro-2,4,8,22-tetraazatetracyclo[14.3.1.1(3,7).1(9,13)]docosa-1(20), 3(22),4,6,9(21),10,12,16,18-nonaen-12-yl]propane-1-sulfonamide trifluoroacetate]
IC50 [1, 6]: 990 nM
IC50 ([2]; Table B1): 0.85 nM
IC50 ([3]; Table B1): 0.31 nM
IC50 (TYK2; Table B1): 1.5 nM
IC50 ([4]; Table B1): 4.6 nM

SMILES: OCc1cc2cc(c1)Nc1nc(ncc1Cl)Nc1cccc(c1)CC2 [Example B24, [6-Chloro-2,4,8,22-tetraazatetracyclo[14.3.1.1(3,7).1(9,13)]docosa-1(20),3(22),4,6,9(21),10,12,16,18-nonaen-11-yl]methanol trifluoroacetate]
IC50 [1, 6]: 781 nM
IC50 ([2]; Table B1): 14 nM
IC50 ([3]; Table B1): 2.3 nM
IC50 (TYK2; Table B1): 18 nM
IC50 ([4]; Table B1): 5.8 nM

SMILES: CC(C)(C)NS(=O)(=O)c1cc2cc(c1)Nc1nc(ncc1Br)Nc1cccc(c1)CC2 [Example B17, 6-Bromo-N-(tert-butyl)-2,4,8,22-tetraazatetracyclo[14.3.1.1(3,7).1(9,13)]docosa-1(20),3(22),4,6,9(21),10,12,16,18-nonaene-11-sulfonamide trifluoroacetate]
IC50 [1, 6]: > 10000 nM
IC50 ([2]; Table B1): 71 nM
IC50 ([3]; Table B1): 11 nM
IC50 (TYK2; Table B1): 152 nM
IC50 ([4]; Table B1): 126 nM

SMILES: Cc1ccc(S(=O)(=O)Nc2ccc3cc2CCc2cccc(c2)Nc2ncc(Cl)c(n2)N3)cc1 [Example B150, N-[6-Chloro-2,4,8,22-tetraazatetracyclo[14.3.1.1(3,7).1(9,13)]docosa-1(20), 3(22),4,6,9(21),10,12,16,18-nonaen-12-yl]-4-methylbenzenesulfonamide trifluoroacetate]
IC50 [1, 6]: 180 nM
IC50 ([2]; Table B1): 0.41 nM
IC50 ([3]; Table B1): 0.15 nM
IC50 (TYK2; Table B1): 0.86 nM
IC50 ([4]; Table B1): 6.3 nM

SMILES: CC(=O)Nc1ccc(C(=O)Nc2ccc3cc2CCc2cccc(c2)Nc2ncc(Cl)c(n2)N3)cc1 [Example B45, 4-(Acetylamino)-N-[6-chloro-2,4,8,22-tetraazatetracyclo[14.3.1.1(3,7).1(9,13)]docosa-1(20),3(22),4,6,9(21),10,12,16,18-nonaen-12-yl]benzamide trifluoroacetate]
IC50 [1, 6]: 95 nM
IC50 ([2]; Table B1): 0.88 nM
IC50 ([3]; Table B1): 0.6 nM
IC50 (TYK2; Table B1): 0.53 nM
IC50 ([4]; Table B1): 3.7 nM

SMILES: CN(Cc1ccc2cc1CCc1cncc(c1)Nc1ncc(Cl)c(n1)N2)CC1CCN(S(=O)(=O)c2ccccc2C#N)CC1 [Example B340, 2-[(4-{[{[6-Chloro-2,4,8,18,22-pentaazatetracyclo[14.3.1.1(3,7).1(9,13)]docosa-1(20),3(22),4,6,9(21),10,12,16,18-nonaen-12-yl]methyl}(methyl)amino]methyl}piperidin-1-yl)sulfonyl]benzonitrile tris(trifluoroacetate)]
ALK % of inhibition at a concentration of 500 nM or 1 mM [1, 7]: 24%
IC50 ([2]; Table B1): 1.2 nM
IC50 ([3]; Table B1): 41 nM
IC50 (TYK2; Table B1): 180 nM
IC50 ([4]; Table B1): > 400 nM

SMILES: O=C(Nc1ccc2cc1CCc1cncc(c1)Nc1ncc(Cl)c(n1)N2)N1CCN(S(=O)(=O)c2ccccc2)CC1 [Example B319, N-[6-Chloro-2,4,8,18,22-pentaazatetracyclo[14.3.1.1(3,7).1(9,13)]docosa-1(20),3(22),4,6,9(21),10,12,16,18-nonaen-12-yl]-4-(phenylsulfonyl)piperazine-1-carboxamide bis(trifluoroacetate)]
ALK % of inhibition at a concentration of 500 nM or 1 mM [1, 7]: 58%
IC50 ([2]; Table B1): 42 nM
IC50 ([3]; Table B1): > 400 nM
IC50 (TYK2; Table B1): 288 nM
IC50 ([4]; Table B1): > 400 nM

SMILES: O=C(Nc1ccc2cc1CCc1cccc(c1)Nc1ncc(Cl)c(n1)N2)Nc1ccccc1-c1ccccc1 [Example B130, N-Biphenyl-2-yl-N′-[6-chloro-2,4,8,22-tetraazatetracyclo[14.3.1.1(3,7).1(9,13)]docosa-1(20),3(22),4,6,9(21),10,12,16,18-nonaen-12-yl]urea trifluoroacetate]
ALK % of inhibition at a concentration of 500 nM or 1 mM [1, 5]: 0%
IC50 ([2]; Table B1): 11 nM
IC50 ([3]; Table B1): 11 nM
IC50 (TYK2; Table B1): 64 nM
IC50 ([4]; Table B1): 331 nM

SMILES: O=C(CC1CCN(S(=O)(=O)c2ccccc2)CC1)Nc1ccc2cc1CCc1cccc(c1)Nc1ncc(Cl)c(n1)N2 [Example A205, N-[6-Chloro-2,4,8,22-tetraazatetracyclo[14.3.1.1(3,7).1(9,13)]docosa-1(20),3(22),4,6,9(21),10,12,16,18-nonaen-12-yl]-2-[1-(phenylsulfonyl)piperidin-4-yl]acetamide trifluoroacetate]
ALK % of inhibition at a concentration of 500 nM or 1 mM [1, 8]: 23%
IC50 [2, 9]: 52 nM
IC50 [3, 10]: 199 nM
IC50 (TYK2): > 200 nM
IC50 [4, 11]: > 200 nM

SMILES: O=C(Nc1ccc2cc1CCc1cncc(c1)Nc1ncc(Cl)c(n1)N2)N[C@H]1CCN(c2nc3cccnc3o2)C1 [Example B275, N-[6-Chloro-2,4,8,18,22-pentaazatetracyclo[14.3.1.1(3,7).1(9,13)]docosa-1(20),3(22),4,6,9(21),10,12,16,18-nonaen-12-yl]-N′-[(3S)-1-[1,3]oxazolo[5,4-b]pyridin-2-ylpyrrolidin-3-yl]urea tris(trifluoroacetate)]
ALK % of inhibition at a concentration of 500 nM or 1 mM [1, 5]: 9.8%
IC50 ([2]; Table B1): 14 nM
IC50 ([3]; Table B1): 129 nM
IC50 (TYK2; Table B1): 348 nM
IC50 ([4]; Table B1): > 10000 nM

SMILES: O=C(CC1CCN(C(=O)c2ccc(F)cc2)CC1)Nc1ccc2cc1CCc1cncc(c1)Nc1ncc(Cl)c(n1)N2 [Example A193, N-[6-Chloro-2,4,8,18,22-pentaazatetracyclo[14.3.1.1(3,7).1(9,13)]docosa-1(20),3(22),4,6,9(21),10,12,16,18-nonaen-12-yl]-2-[1-(4-fluorobenzoyl)piperidin-4-yl]acetamide bis(trifluoroacetate)]
ALK % of inhibition at a concentration of 500 nM or 1 mM [1, 8]: 31%
IC50 [2, 9]: 12 nM
IC50 [3, 10]: > 200 nM
IC50 (TYK2): > 200 nM
IC50 [4, 11]: > 200 nM

Next, values leading:

IC50 ([1]; Table D1, 90 μM ATP): 380 nM
IC50 ([2]; Table D1): 7.3 nM
IC50 ([3]; Table D1): 2.1 nM
IC50 (TYK2; Table D1): 6.1 nM
IC50 ([4]; Table D1): 18 nM
SMILES: O=C(Nc1cc2cc(c1)OCCSc1cccc(c1)Nc1nc(ncc1Cl)N2)c1ccco1 [Example D62, N-[6-Chloro-17-oxa-14-thia-2,4,8,24-tetraazatetracyclo[16.3.1.1(3,7).1(9,13)]tetracosa-1(22),3(24),4,6,9(23),10,12,18,20-nonaen-20-yl]-2-furamide trifluoroacetate]

IC50 [1]: 6600 nM
IC50 [2]: 81 nM
IC50 [3]: 37 nM
IC50 (TYK2): 91 nM
IC50 [4]: 115 nM
SMILES: O=S1(=O)NCc2cccc(c2)Nc2nc(ncc2Cl)Nc2cccc1c2 [Example C3, 6-Chloro-16-thia-2,4,8,15,23-pentaazatetracyclo[15.3.1.1(3,7).1(9,13)]tricosa-1(21),3(23),4,6,9(22),10,12,17,19-nonaene 16,16-dioxide]

IC50 ([1]; Table D1, 90 μM ATP): 91 nM
IC50 ([2]; Table D1): 0.5 nM
IC50 ([3]; Table D1): 0.5 nM
IC50 (TYK2; Table D1): 1.8 nM
IC50 ([4]; Table D1): 6.4 nM
SMILES: NC(=O)N1CCN(c2cc(-c3cc4cc(c3)Nc3ncc(Cl)c(n3)Nc3cccc(c3)OCC4)ccn2)CC1 [Example D39, 4-{4-[6-Chloro-14-oxa-2,4,8,23-tetraazatetracyclo[15.3.1.1(3,7).1(9,13)]tricosa-1(21),3(23),4,6,9(22),10,12,17,19-nonaen-19-yl]pyridin-2-yl}piperazine-1-carboxamide bis(trifluoroacetate)]

IC50 ([1]; Table D1, 90 μM ATP): 791 nM
IC50 ([2]; Table D1): 8.2 nM
IC50 ([3]; Table D1): 2.4 nM
IC50 (TYK2; Table D1): 8.1 nM
IC50 ([4]; Table D1): 10 nM
SMILES: Clc1cnc2nc1Nc1cccc(c1)OCCOc1cccc(c1)N2 [Example D10, 6-Chloro-14,17-dioxa-2,4,8,24-tetraazatetracyclo[16.3.1.1(3,7).1(9,13)]tetracosa-1(22),3(24),4,6,9(23),10,12,18,20-nonaene trifluoroacetate]

IC50 [1]: > 1000 nM
IC50 [2]: 361 nM
IC50 [3]: 350 nM
IC50 (TYK2): > 1000 nM
IC50 [4]: 317 nM
SMILES: O=C1NCc2cccc(c2)Nc2ncc(Cl)c(n2)Nc2cccc1c2 [Example C4, 6-Chloro-2,4,8,15,23-pentaazatetracyclo[15.3.1.1(3,7).1(9,13)]tricosa-1(21),3(23),4,6,9(22),10,12,17,19-nonaen-14-one]
